Molecules are shown by their SMILES.

The assay deals with Histone deacetylase 2 (Homo sapiens, UniProt Q92769). In words: Inhibition of full-length recombinant human C-terminal GST tagged HDAC2 expressed in Sf9 insect cells using aminoluciferin peptide substrate at 100 nM preincubated for 3 hrs followed by substrate addition and measured after 30 mins by HDAC-Glo I/II chemiluminescence assay. The settings on record: time 3.5 hrs.
Sequence of Histone deacetylase 2 (Q92769 whole entry): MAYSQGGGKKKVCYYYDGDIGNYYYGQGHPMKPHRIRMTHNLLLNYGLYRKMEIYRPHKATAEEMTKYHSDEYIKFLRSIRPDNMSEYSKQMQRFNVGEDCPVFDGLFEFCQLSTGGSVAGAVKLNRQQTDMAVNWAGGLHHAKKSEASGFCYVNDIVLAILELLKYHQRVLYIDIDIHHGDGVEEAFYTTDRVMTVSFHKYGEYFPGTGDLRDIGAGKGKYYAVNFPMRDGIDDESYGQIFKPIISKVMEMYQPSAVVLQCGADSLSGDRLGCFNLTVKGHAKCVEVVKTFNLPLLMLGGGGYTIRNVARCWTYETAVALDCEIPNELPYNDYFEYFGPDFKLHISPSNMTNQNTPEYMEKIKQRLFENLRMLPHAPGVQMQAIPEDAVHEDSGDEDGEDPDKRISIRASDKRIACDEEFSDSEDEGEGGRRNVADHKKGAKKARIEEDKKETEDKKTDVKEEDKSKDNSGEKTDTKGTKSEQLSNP
Take `Nc1ccc(-c2ccccc2)cc1NC(=O)c1cn(CC(=O)Nc2ccc(F)cc2)nn1`: the inhibition (in general, how much of the control response was suppressed) stood at 0%.

With `Nc1ccc(-c2cccs2)cc1NC(=O)c1ccc(-c2cn(CCCCCC(=O)O)nn2)cc1`, the inhibition worked out at 9%.

For `Nc1ccc(-c2cccs2)cc1NC(=O)c1cccc(-c2cn(CCc3ccc([N+](=O)[O-])cc3)nn2)c1`, the inhibition amounted to 1%.

`Nc1ccc(-c2cccs2)cc1NC(=O)c1cccc(-c2cn(Cc3ccc4ccccc4n3)nn2)c1`: the inhibition worked out at 4%.

Regarding `Nc1ccc(-c2cccs2)cc1NC(=O)CCc1cn(CCCc2ccccc2)nn1`, the inhibition worked out at 10%.

For the compound `Nc1ccc(-c2ccccc2)cc1NC(=O)c1cn(CCN2CCOCC2)nn1`, the inhibition worked out at 0%.

In the case of `Cc1ccc(-n2cc(-c3ccc(C(=O)Nc4cc(-c5cccs5)ccc4N)s3)nn2)cc1C`, the inhibition came out at 0%.

Consider `Nc1ccc(-c2cccs2)cc1NC(=O)c1cccc(-c2cn(Cc3cc4ccccc4s3)nn2)c1`, for which the inhibition is 0%.

With `Nc1ccc(-c2ccsc2)cc1NC(=O)c1cn(CC(=O)Nc2ccc(F)cc2)nn1`, the inhibition is 8%.

As to `Nc1ccc(-c2ccccc2)cc1NC(=O)c1cn(CCc2ccc(F)cc2)nn1`, the inhibition worked out at 0%.

Regarding `Nc1ccc(-c2ccccc2)cc1NC(=O)CCc1cn(-c2ccc([N+](=O)[O-])cc2)nn1`, the inhibition was 0%.

Turning to `Nc1ccc(-c2ccccc2)cc1NC(=O)c1cn(CC(=O)c2ccccc2)nn1`, the inhibition was 0%.

Consider `Nc1ccc(-c2cccs2)cc1NC(=O)c1ccc(-c2cn(-c3ccc(Br)cc3)nn2)s1`, for which the inhibition turned out to be 0%.

As to `Nc1ccc(-c2ccccc2)cc1NC(=O)c1cn(CCc2c[nH]c3ccccc23)nn1`, the inhibition amounted to 0%.

On to `Nc1ccc(-c2ccsc2)cc1NC(=O)CCc1cn(CCCCCCC(=O)O)nn1`, for which the inhibition is 0%.

As to `Nc1ccc(-c2ccccc2)cc1NC(=O)c1cn(CCN2CCc3ccccc3C2)nn1`, the inhibition came out at 0%.

Consider `COc1ccc(-n2cc(CCC(=O)Nc3cc(-c4ccc(F)cc4)ccc3N)nn2)cc1`, for which the inhibition was found to be 10%.

Turning to `Nc1ccc(-c2cccnc2)cc1NC(=O)CCc1cn(Cc2ccc(-c3ccccc3)cc2)nn1`, the inhibition was 8%.

As to `Nc1ccc(-c2cccs2)cc1NC(=O)c1ccc(-c2cn(-c3ccc(Br)cc3)nn2)cc1`, the inhibition was 0%.

With `COc1ccccc1CCn1cc(C(=O)Nc2cc(-c3ccccc3)ccc2N)nn1`, the inhibition stood at 0%.

Turning to `Nc1ccc(-c2ccsc2)cc1NC(=O)c1cn(CS(=O)(=O)c2ccccc2)nn1`, the inhibition is 14%.

For `Nc1ccc(-c2ccsc2)cc1NC(=O)CCc1cn(CC(=O)c2ccccc2)nn1`, the inhibition was 12%.

Take `Nc1ccc(-c2ccc(F)cc2)cc1NC(=O)CCc1cn(CC2CCCCC2)nn1`: the inhibition was 1%.

Consider `Nc1ccc(-c2cccs2)cc1NC(=O)c1cccc(-c2cn(CCc3cccc(F)c3)nn2)c1`, for which the inhibition amounted to 0%.

For the compound `Nc1ccc(-c2cccs2)cc1NC(=O)CCc1cn(Cc2ccc(Oc3ccccc3)cc2)nn1`, the inhibition stood at 6%.

Turning to `Cc1csc(CCn2cc(-c3cccc(C(=O)Nc4cc(-c5cccs5)ccc4N)c3)nn2)n1`, the inhibition came to 24%.

As for `Nc1ccc(-c2cccs2)cc1NC(=O)c1cn(CCC23CC4CC(CC(C4)C2)C3)nn1`, the inhibition is 2%.

Consider `Nc1ccc(-c2ccc(F)cc2)cc1NC(=O)c1cn(-c2ccc(Br)cc2)nn1`, for which the inhibition was found to be 10%.

As for `Nc1ccc(-c2ccc(F)cc2)cc1NC(=O)CCc1cn(CCc2cccc(C(F)(F)F)c2)nn1`, the inhibition was determined as 11%.

With `Nc1ccc(-c2ccccc2)cc1NC(=O)CCc1cn(CCCCC(=O)O)nn1`, the inhibition came to 0%.

Take `Nc1ccc(-c2cccs2)cc1NC(=O)c1ccc(-c2cn(-c3ccc([N+](=O)[O-])cc3)nn2)s1`: the inhibition was determined as 7%.

In the case of `Nc1ccc(-c2ccsc2)cc1NC(=O)c1cn(CCCCCCCC(=O)O)nn1`, the inhibition was found to be 10%.

As to `Nc1ccc(-c2ccccc2)cc1NC(=O)c1cn(Cc2ccc(OC(F)(F)F)cc2)nn1`, the inhibition was 0%.

Turning to `COc1ccc(CCn2cc(-c3ccc(C(=O)Nc4cc(-c5cccs5)ccc4N)cc3)nn2)cc1`, the inhibition is 40%.

Turning to `Nc1ccc(-c2cccs2)cc1NC(=O)c1cn(CCc2ccsc2)nn1`, the inhibition turned out to be 0%.

With `Nc1ccc(-c2ccccc2)cc1NC(=O)CCc1cn(CCC2CCCC2)nn1`, the inhibition came to 0%.

As for `Cc1cccc(CCn2cc(-c3cccc(C(=O)Nc4cc(-c5cccs5)ccc4N)c3)nn2)c1`, the inhibition was determined as 5%.

As to `Nc1ccc(-c2ccc(F)cc2)cc1NC(=O)CCc1cn(CCc2ccc(C(=O)O)cc2)nn1`, the inhibition amounted to 33%.

In the case of `Nc1ccc(-c2ccsc2)cc1NC(=O)c1cn(Cc2nc3ccccc3[nH]2)nn1`, the inhibition was 25%.

Regarding `Nc1ccc(-c2ccc(F)cc2)cc1NC(=O)c1cn(CC2CCCCC2)nn1`, the inhibition was determined as 3%.

Regarding `Nc1ccc(-c2cccs2)cc1NC(=O)c1ccc(-c2cn(CCCCC(=O)O)nn2)cc1`, the inhibition stood at 36%.

For the compound `COc1ccc(CCn2cc(CCC(=O)Nc3cc(-c4ccc(F)cc4)ccc3N)nn2)cc1`, the inhibition was found to be 34%.

As to `Nc1ccc(-c2ccsc2)cc1NC(=O)c1cn(CCc2ccc(F)cc2)nn1`, the inhibition came out at 0%.

For `Nc1ccc(-c2cccs2)cc1NC(=O)CCc1cn(CCc2ccc(Cl)cc2)nn1`, the inhibition worked out at 24%.

As to `Nc1ccc(-n2cc(CCC(=O)Nc3cc(-c4cccnc4)ccc3N)nn2)cc1`, the inhibition was determined as 5%.

Turning to `Nc1ccc(-c2cccs2)cc1NC(=O)c1cccc(-c2cn(Cc3ccc(-c4ccccc4)cc3)nn2)c1`, the inhibition turned out to be 0%.

Regarding `Nc1ccc(-c2cccs2)cc1NC(=O)c1cccc(-c2cn(CCC3CCCC3)nn2)c1`, the inhibition is 0%.

Regarding `Nc1ccc(-c2cccs2)cc1NC(=O)c1cccc(-c2cn(Cc3ccc(OC(F)(F)F)cc3)nn2)c1`, the inhibition stood at 0%.

In the case of `Nc1ccc(-c2ccccc2)cc1NC(=O)CCc1cn(CCc2cccc(Cl)c2)nn1`, the inhibition was 1%.

Consider `COc1ccc(-n2cc(C(=O)Nc3cc(-c4ccc(F)cc4)ccc3N)nn2)cc1`, for which the inhibition was found to be 16%.

Regarding `Cc1cccc(C)c1NC(=O)Cn1cc(C(=O)Nc2cc(-c3cccs3)ccc2N)nn1`, the inhibition was found to be 21%.

For the compound `Nc1ccc(-c2ccsc2)cc1NC(=O)c1cn(Cc2ccc3ccccc3n2)nn1`, the inhibition was found to be 19%.

On to `Nc1ccc(-c2ccccc2)cc1NC(=O)CCc1cn(Cc2cc3ccccc3s2)nn1`, for which the inhibition amounted to 0%.

On to `Nc1ccc(-c2cccs2)cc1NC(=O)c1ccc(-c2cn(CC3CCCCC3)nn2)cc1`, for which the inhibition is 0%.

As to `Nc1ccc(-c2cccs2)cc1NC(=O)c1cn(CCC2CCCCC2)nn1`, the inhibition was 3%.

In the case of `Nc1ccc(-c2cccs2)cc1NC(=O)c1ccc(-c2cn(CCC34CC5CC(CC(C5)C3)C4)nn2)s1`, the inhibition came to 0%.

`Nc1ccc(-c2ccsc2)cc1NC(=O)CCc1cn(CCCCC(=O)O)nn1`: the inhibition amounted to 0%.

For the compound `Nc1ccc(-c2ccsc2)cc1NC(=O)c1cn(CCc2ccccc2[N+](=O)[O-])nn1`, the inhibition is 2%.

For `Nc1ccc(-c2ccc(F)cc2)cc1NC(=O)c1cn(Cc2ccc(Oc3ccccc3)cc2)nn1`, the inhibition was 5%.

With `Nc1ccc(-c2cccs2)cc1NC(=O)c1cn(CC(=O)c2ccccc2)nn1`, the inhibition is 15%.

Regarding `Cc1cccc(C)c1NC(=O)Cn1cc(C(=O)Nc2cc(-c3ccsc3)ccc2N)nn1`, the inhibition was 24%.

Consider `COc1ccc(-n2cc(CCC(=O)Nc3cc(-c4cccs4)ccc3N)nn2)cc1`, for which the inhibition is 14%.

In the case of `COc1ccccc1CCn1cc(-c2ccc(C(=O)Nc3cc(-c4cccs4)ccc3N)cc2)nn1`, the inhibition worked out at 29%.

For `Nc1ccc(-c2ccc(F)cc2)cc1NC(=O)CCc1cn(Cc2cccc(C(=O)O)c2)nn1`, the inhibition came out at 0%.

For the compound `Nc1ccc(-c2cccs2)cc1NC(=O)CCc1cn(-c2cccc3ccccc23)nn1`, the inhibition worked out at 0%.

As to `Nc1ccc(-c2ccc(F)cc2)cc1NC(=O)CCc1cn(CC(=O)c2ccccc2)nn1`, the inhibition stood at 19%.

As to `Nc1ccc(-c2ccc(F)cc2)cc1NC(=O)CCc1cn(CCc2ccccc2[N+](=O)[O-])nn1`, the inhibition came to 20%.

`COc1ccc(CCn2cc(C(=O)Nc3cc(-c4ccc(F)cc4)ccc3N)nn2)cc1`: the inhibition was found to be 16%.

Consider `Nc1ccc(-c2ccsc2)cc1NC(=O)CCc1cn(CCc2cccc(Cl)c2)nn1`, for which the inhibition worked out at 15%.

On to `Nc1ccc(-c2cccnc2)cc1NC(=O)CCc1cn(-c2ccc([N+](=O)[O-])cc2)nn1`, for which the inhibition amounted to 2%.

As for `Nc1ccc(-c2ccccc2)cc1NC(=O)CCc1cn(Cc2ccc3ccccc3n2)nn1`, the inhibition was 18%.

`Nc1ccc(-c2cccs2)cc1NC(=O)c1cn(CCCCC(=O)O)nn1`: the inhibition was found to be 3%.

On to `Nc1ccc(-c2ccsc2)cc1NC(=O)CCc1cn(CCc2ccc([N+](=O)[O-])cc2)nn1`, for which the inhibition was 20%.

With `Nc1ccc(-c2cccs2)cc1NC(=O)c1cccc(-c2cn(CCCCC(=O)O)nn2)c1`, the inhibition turned out to be 48%.

Turning to `Nc1ccc(-c2ccc(F)cc2)cc1NC(=O)c1cn(-c2cccc3ccccc23)nn1`, the inhibition worked out at 4%.

Regarding `Nc1ccc(-c2ccc(F)cc2)cc1NC(=O)c1cn(Cc2ccc(-c3ccccc3)cc2)nn1`, the inhibition came out at 0%.

For `Nc1ccc(-c2ccc(F)cc2)cc1NC(=O)CCc1cn(CC23CC4CC(CC(C4)C2)C3)nn1`, the inhibition was determined as 0%.

In the case of `Nc1ccc(-c2ccsc2)cc1NC(=O)CCc1cn(Cc2ccc(Oc3ccccc3)cc2)nn1`, the inhibition came to 0%.

On to `Nc1ccc(-c2cccnc2)cc1NC(=O)CCc1cn(CCCCCC(=O)O)nn1`, for which the inhibition worked out at 0%.

As to `Nc1ccc(-c2ccc(F)cc2)cc1NC(=O)CCc1cn(Cc2ccc3ccccc3c2)nn1`, the inhibition turned out to be 15%.

With `Nc1ccc(-c2cccs2)cc1NC(=O)c1cn(C[S+]([O-])c2ccccc2)nn1` (centres undefined), the inhibition stood at 8%.

As to `Nc1ccc(-c2cccnc2)cc1NC(=O)CCc1cn(CCCCCCC(=O)O)nn1`, the inhibition was 0%.

Take `Nc1ccc(-c2cccs2)cc1NC(=O)c1cn(CCCCCCCC(=O)O)nn1`: the inhibition was 2%.

On to `Nc1ccc(-c2cccnc2)cc1NC(=O)CCc1cn(CCN2CCc3ccccc3C2)nn1`, for which the inhibition was 5%.
